According to patent publication US20080300237A1, “Pharmaceutically Active Diazepanes” (priority 2005, published 2008):

Molecular target: T1, human LFA-1 (Homo sapiens, UniProt P20701)
T1 construct: endogenous in cells; host or cells: JY cells (human lymphoblastoid B cell line); The ICAM-1 fusion partner is made in the baculovirus system
Assay: In vitro cell free assay: binding of soluble human ICAM-1 to immobilized human LFA-1
Settings: immobilized human LFA-1, biotinylated recombinant ICAM-1, read-out: IC50, inhibition of adhesion of LFA-1 to ICAM-1
Protocol: A. In Vitro TEST SYSTEM (Cell Free Assay)
The assay determines the binding of soluble human ICAM-1 to immobilized human LFA-1. LFA-1 is purified from JY cells, a human lymphoblastoid B cell-line, by immunoaffinity chromatography analogously as described by Dustin et al., J. Immunol. 148, 2654-2663, 1992. ICAM-1 mouse Cκ fusion protein (ICAM-1) is produced using the baculovirus system as described by Weitz-Schmidt et al., Anal. Biochem. 238, 184-190, 1996.
Purified LFA-1 is diluted 1:20 in phosphate buffered saline (PBS) containing 2 mM MgCl2, pH 7.4 and coated onto microtiter plates (Nunc) at 37° for 3 hours. Plates are blocked with 1% heat-treated bovine serum albumin in PBS for 2 hours at 37° followed by a washing step using PBS, 2 mM MgCl2, 1% fetal calf serum, pH 7.4 (assay buffer). Compounds of the present invention (10 mM solution in DMSO) are diluted in assay buffer and added to the plates. Biotinylated recombinant ICAM-1 in assay buffer (6 μg/ml) is added and allowed to bind at 37° for one hour. After incubation, wells are washed with assay buffer. Streptavidinperoxidase diluted 1:5000 in assay buffer is added and incubated for 45 min at 37°. […] The reaction is stopped after 20 minutes and bound ICAM-1 is determined by measuring the optical density at 405 nm in a microplate reader.

T1 sequence (P20701 26-1170): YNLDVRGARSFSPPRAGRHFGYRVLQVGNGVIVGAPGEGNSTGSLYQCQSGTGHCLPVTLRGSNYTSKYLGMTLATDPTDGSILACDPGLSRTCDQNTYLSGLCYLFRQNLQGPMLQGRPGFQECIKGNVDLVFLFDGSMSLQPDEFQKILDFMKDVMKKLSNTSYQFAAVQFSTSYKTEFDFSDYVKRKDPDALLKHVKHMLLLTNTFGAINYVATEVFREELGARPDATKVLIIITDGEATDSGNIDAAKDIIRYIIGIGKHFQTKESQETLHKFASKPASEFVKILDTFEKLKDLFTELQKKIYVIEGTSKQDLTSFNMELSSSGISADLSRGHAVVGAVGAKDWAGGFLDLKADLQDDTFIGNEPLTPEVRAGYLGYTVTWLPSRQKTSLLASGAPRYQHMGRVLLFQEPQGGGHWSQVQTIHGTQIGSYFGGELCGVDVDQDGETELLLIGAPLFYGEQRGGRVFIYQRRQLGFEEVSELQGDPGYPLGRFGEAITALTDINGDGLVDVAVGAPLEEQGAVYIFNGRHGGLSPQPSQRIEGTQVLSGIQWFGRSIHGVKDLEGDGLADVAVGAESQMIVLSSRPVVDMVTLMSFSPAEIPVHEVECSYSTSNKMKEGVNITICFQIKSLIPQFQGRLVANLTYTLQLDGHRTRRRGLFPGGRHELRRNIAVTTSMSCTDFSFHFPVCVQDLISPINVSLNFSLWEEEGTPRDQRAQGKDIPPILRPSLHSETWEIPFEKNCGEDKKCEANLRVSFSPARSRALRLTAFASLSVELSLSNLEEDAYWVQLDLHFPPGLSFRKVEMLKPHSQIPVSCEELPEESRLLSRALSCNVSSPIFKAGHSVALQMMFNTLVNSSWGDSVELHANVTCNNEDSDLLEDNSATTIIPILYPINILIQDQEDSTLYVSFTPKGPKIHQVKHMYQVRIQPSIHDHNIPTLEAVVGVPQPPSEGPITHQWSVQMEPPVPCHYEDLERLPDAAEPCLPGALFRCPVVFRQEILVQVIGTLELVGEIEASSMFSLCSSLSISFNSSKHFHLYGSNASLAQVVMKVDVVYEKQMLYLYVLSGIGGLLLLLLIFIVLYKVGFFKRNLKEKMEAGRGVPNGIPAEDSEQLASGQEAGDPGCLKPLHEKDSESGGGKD
T1 sequence (P05107 23-769 partner): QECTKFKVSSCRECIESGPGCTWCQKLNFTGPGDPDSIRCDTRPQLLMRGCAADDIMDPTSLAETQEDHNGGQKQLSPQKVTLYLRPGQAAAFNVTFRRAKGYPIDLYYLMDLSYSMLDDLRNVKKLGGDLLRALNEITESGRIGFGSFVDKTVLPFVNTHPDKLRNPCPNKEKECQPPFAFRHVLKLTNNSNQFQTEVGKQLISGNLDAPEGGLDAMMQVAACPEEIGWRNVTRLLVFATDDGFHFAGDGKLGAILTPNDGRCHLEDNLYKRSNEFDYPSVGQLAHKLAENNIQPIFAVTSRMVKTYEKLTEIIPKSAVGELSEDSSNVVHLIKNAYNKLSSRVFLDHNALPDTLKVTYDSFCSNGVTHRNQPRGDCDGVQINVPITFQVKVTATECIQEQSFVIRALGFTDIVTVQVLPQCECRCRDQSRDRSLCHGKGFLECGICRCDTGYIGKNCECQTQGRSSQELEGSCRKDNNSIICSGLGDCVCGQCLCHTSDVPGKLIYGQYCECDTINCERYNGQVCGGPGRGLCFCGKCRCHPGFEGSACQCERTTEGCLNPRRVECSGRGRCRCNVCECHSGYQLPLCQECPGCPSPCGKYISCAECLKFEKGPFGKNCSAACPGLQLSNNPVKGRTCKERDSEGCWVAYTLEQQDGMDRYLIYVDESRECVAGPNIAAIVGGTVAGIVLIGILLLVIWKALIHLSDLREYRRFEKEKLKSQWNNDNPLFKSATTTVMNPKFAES

SMILES | IC50
C[C@@H]1CCN([C@H](Cc2cccc3ccccc23)C(N)=O)C(=O)[C@H](c2cccc(Cl)c2)N1C(=O)CNC(=O)c1ccccc1 [Example 13, N-{2-[(2S,7R)-4-((R)-1-Carbamoyl-2-naphthalen-1-yl-ethyl)-2-(3-chloro-phenyl)-7-methyl-3-oxo-[1,4]diazepan-1-yl]-2-oxo-ethyl}-benzamide] | 430 nM
C[C@@H]1CCN([C@H](Cc2cccc3ccccc23)C(N)=O)C(=O)[C@H](c2cccc(Cl)c2)N1C(=O)CNC(=O)[C@@H]1CCCN1 [Example 14, (S)-Pyrrolidine-2-carboxylic acid {2-[(2S,7R)-4-((R)-1-carbamoyl-2-naphthalen-1-yl-ethyl)-2-(3-chloro-phenyl)-7-methyl-3-oxo-[1,4]diazepan-1-yl]-2-oxo-ethyl}-amide] | 90 nM
